Converted amounts (≈) assume the structure as drawn. Read-outs that look alike come from different tables or passages of the source.
Columns and labels:
P. mirabilis A9900 [1] = experiment: Oral PD50 in mice; assay type: in vivo; details: Proteus mirabilis, A9900, po, 3.5 h, oral; mice treated at 1 and 3.5 hours post-challenge; read-out: PD50
P. mirabilis A9900 [2] = experiment: IM PD50 in mice; assay type: in vivo; details: Proteus mirabilis
Description: Comparative IM PD50 Values of
(§1) BL-S640 Derivatives in Mice

[3] = Mouse blood levels after intramuscular administration; assay type: in vivo; details: mouse, blood, im, 10 mg/kg, Example 3, IM 10 mg./kg., average of 3 experiments, read-out: Blood Levels
Protocol: Mouse Blood Levels After Intramuscular Administration
of 10 mg./kg. Body Weight
The compounds were dissolved in 0.01% phosphate buffer.
Mouse Blood Levels After IM
Administration of 10 mg./kg. Body Weight
The compounds were prepared in 0.01% phosphate
(§2) The compounds were prepared in 0.01% phosphate buffer.

Str. pyogenes A9604 = experiment: Antibiotic activity in nutrient broth (MIC); assay type: cell-based; details: Streptococcus pyogenes, A9604, inoculum 10^-3; 45% AAB + 5% serum + 50% broth; derivatives adjusted for BL-S640 content; read-out: MIC
Description: (§3) Antibiotic Activity In Nutrient Broth
(§4) * 45% AAB+ 5% serum+ 50% broth listed above.
(§5) ** Dilution of overnight broth culture.
(§6) Antibiotic Spectrum Nutrient Broth
(§7) * 45% AAB + 5% serum + 50% broth
(§8) Antibiotic Spectrum in Nutrient Broth
(§9) *45% AAB + 5% serum + 50% broth listed above.

Str. pneumoniae A9585 = experiment: Antibiotic activity in nutrient broth (MIC); assay type: cell-based; details: Streptococcus pneumoniae, A9585, inoculum 10^-3 dilution of overnight broth culture; 45% AAB + 5% serum + 50% broth; derivatives adjusted for BL-S640 content
Description: as §3, §4, §5, §6, §7, §8, §9

S. pyogenes A9604 = experiment: Oral PD50 in mice; assay type: in vivo; details: Streptococcus pyogenes, mice treated at 1 and 3.5 hours post-challenge
Protocol: (§10) Comparative Oral PD50 Values of
as §1
(§11) *Mice were treated at 1 and 3.5 hours post-challenge.

E. coli A15119 = experiment: Oral PD50 in mice; assay type: in vivo; details: oral, mice treated at 1 and 3.5 hours post-challenge
Protocol: as §10, §1, §11

K. pneumoniae A9977 [4] = experiment: Oral PD50 in mice; assay type: in vivo; details: Klebsiella pneumoniae, A9977; oral; mice treated at 1 and 3.5 hours post-challenge; read-out: PD50
Protocol: as §10, §1, §11

P. mirabilis A9707 = experiment: Oral PD50 in mice; assay type: in vivo; details: Proteus mirabilis, mice treated at 1 and 3.5 hours post-challenge
Protocol: as §10, §1, §11

[5] = Paper chromatography of rat urine for antibiotically active metabolites; assay type: in vivo; details: IM; rat urine 0-2 and 2-4 hours
Protocol: Paper chromatograms were run on rat urine collected between 0 and 2 and between 2 and 4 hours following IM administration of BL-S1055 and 640, for the detection of antibiotically active metabolites using descending chromatography with system No. 9 (butyl acetate:n-butanol:glacial acetic acid:H2 O= 80:15:40:24).

[6] = Urinary recovery after IM administration to rats; assay type: in vivo; details: rat, urine, 50 mg/kg, IM 50 mg./kg., read-out: Urinary Recovery, Percentage of Administered Dose Recovered
Protocol: Urinary Recovery After IM
Administration of 50 and 10 mg./kg. to Rats
The compounds were prepared in 0.01% phosphate buffer. BL-S640 was used as
Urinary Recovery after IM
Administration of 50 mg./kg. to Rats
as §2

[7] = 0 min
Ps. aeruginosa A9843A = experiment: Antibiotic activity in nutrient broth (MIC); assay type: cell-based; details: Pseudomonas aeruginosa
Description: as §3, §5, §6, §8

S. aureus Smith A9537 = experiment: Antibiotic activity in nutrient broth (MIC); assay type: cell-based; details: Staphylococcus aureus, SMITHA9537, inoculum 10^-4, derivatives adjusted for BL-S640 content, read-out: MIC
Description: as §3, §5, §6, §8

S. aureus BX1633 A9606 = experiment: Antibiotic activity in nutrient broth (MIC); assay type: cell-based; details: Staphylococcus aureus, derivatives adjusted for BL-S640 content, read-out: MIC
Description: as §3, §5, §6, §8

K. pneumoniae A9977 [8] = experiment: Antibiotic activity in nutrient broth (MIC); assay type: cell-based; details: Klebsiella pneumoniae, inoculum 10^-4, derivatives adjusted for BL-S640 content, read-out: MIC
Description: as §3, §5, §6, §8

Ent. cloacae A9657 = experiment: Antibiotic activity in nutrient broth (MIC); assay type: cell-based; details: Enterobacter cloacae, A9657, inoculum 10^-4; derivatives adjusted for BL-S640 content; read-out: MIC
Description: as §3, §5, §6, §8

Pr. mirabilis A9900 = experiment: Antibiotic activity in nutrient broth (MIC); assay type: cell-based; details: Proteus mirabilis, inoculum 10^-4, derivatives adjusted for BL-S640 content
Description: as §3, §5, §6, §8

E. coli A9675 = experiment: Antibiotic activity in nutrient broth (MIC); assay type: cell-based; details: Escherichia coli, A9675, inoculum 10^-4; derivatives adjusted for BL-S640 content; read-out: MIC
Description: as §3, §5, §6, §8

Pr. morganii A15153 = experiment: Antibiotic activity in nutrient broth (MIC); assay type: cell-based; details: Morganella morganii, A15153, inoculum 10^-4; derivatives adjusted for BL-S640 content; read-out: MIC
Description: as §3, §5, §6, §8

Ent. cloacae A9659 = experiment: Antibiotic activity in nutrient broth (MIC); assay type: cell-based; details: Enterobacter cloacae, A9659, inoculum 10^-4; derivatives adjusted for BL-S640 content; read-out: MIC
Description: as §3, §5, §6, §8

[9] = Mouse blood levels after oral administration; assay type: in vivo; details: mouse, blood, po, 100 mg/kg, Example 3, PO 100 mg./kg., Tween-CMC, average of two experiments, read-out: Blood Levels
Protocol: Mouse Blood Levels After Oral
Administration Of 100 mg./kg. Body Weight
The compounds were prepared in
Tween - carboxymethylcellulose
and 8 mice were used for each
Mouse Blood Levels After PO
Administration of 100 mg./kg. Body Weight
The compounds were prepared in Tween-CMC. BL-S640
The compounds were prepared in Tween-CMC. Values are the average of two

SMILES: O=C(O)C1=C(CSc2cnn[nH]2)CS[C@@H]2[C@H](N3C(=O)[C@@H](c4ccc(O)cc4)NC3c3ccccc3S(=O)(=O)O)C(=O)N12 (stereo partly drawn) [BL-S1055]
- ED50 (P. mirabilis A9900 [1]): 8.2 mg/kg
- ED50 (P. mirabilis A9900 [2]): 1.6 mg/kg
- concentration at 0.25 h ([3]; 0.25 hr): 10300 ng/mL
- concentration at 0.5 h ([3]; 0.5 hr): 9900 ng/mL
- concentration at 1 h ([3]; 1 hr): 7600 ng/mL
- concentration at 1.5 h ([3]; 1.5 hr): 6500 ng/mL
- MIC (Str. pyogenes A9604): 0.016 µg/mL
- MIC (Str. pneumoniae A9585): 0.06 µg/mL
- ED50 (S. pyogenes A9604): 0.4 mg/kg
- ED50 (E. coli A15119; Escherichia coli, A15119, po, 3.5 h, read-out: PD50): 1.8 mg/kg
- PD50 (E. coli A15119): 1.6 mg./kg./treatment
- ED50 (K. pneumoniae A9977 [4]): 1.6 mg/kg
- ED50 (P. mirabilis A9707): 1 mg/kg
- Hydrolysis to the parent compound (BL-S640) [5]: complete hydrolysis
- dose excreted at 6 h ([6]; 0-6 hr): 36.6%
- dose excreted at 24 h ([6]; 0-24 hr): 39%
- dose excreted at 24 h ([6]; 6-24 hr): 2.4%
- % Free BL-S640 by liquid chromatography [7]: 64.0%
- MIC (Ps. aeruginosa A9843A): > 125 µg/mL
- MIC (S. aureus Smith A9537; + 50% serum): 2 µg/mL
- MIC (S. aureus Smith A9537; nutrient broth): 0.13 µg/mL (≈ 0.206 µM)
- MIC (S. aureus BX1633 A9606; BX1633A9606, inoculum 10^-2): 2 µg/mL (≈ 3.17 µM)
- MIC (S. aureus BX1633 A9606; BX1633A9606, inoculum 10^-3): 0.5 µg/mL (≈ 0.793 µM)
- MIC (K. pneumoniae A9977 [8]): 0.5 µg/mL (≈ 0.793 µM)
- MIC (Ent. cloacae A9657): 0.5 µg/mL (≈ 0.793 µM)
- MIC (Pr. mirabilis A9900): 0.5 µg/mL (≈ 0.793 µM)
- MIC (E. coli A9675): 4 µg/mL (≈ 6.34 µM)
- MIC (Pr. morganii A15153): 32 µg/mL (≈ 50.7 µM)
- MIC (Ent. cloacae A9659): 63 µg/mL (≈ 99.9 µM)
- concentration at 0.5 h ([9]; 0.5 hr): 38200 ng/mL
- concentration at 1 h ([9]; 1 hr): 35700 ng/mL
- concentration at 2 h ([9]; 2 hr): 22000 ng/mL
- concentration at 3.5 h ([9]; 3.5 hr): 11300 ng/mL
